According to a melting point compilation (Tetko et al.):

melting point [°C] | SMILES
156 to 158 | Nc1cccc(S(=O)(=O)N2CCCC2)c1
154 to 156 | Nc1nc(-c2ccc(F)cc2)ns1
81 to 83 | NCC(=O)Nc1ccccc1[N+](=O)[O-]
37 to 39 | CCOC(=O)c1cc(Cl)ccc1[N+](=O)[O-]
201 to 203 | c1csc(-c2nn[nH]n2)c1
97 to 99 | O=Cc1cn(Cc2cccnc2)nn1
52 to 54 | O=[N+]([O-])c1cc(S(=O)(=O)Cl)ccc1O
100 to 102 | CCOC(=O)CCc1nnc(-c2ccc(Cl)cc2)o1
103 to 105 | CC(C)(C)OC(=O)Nc1cccc(CCl)c1
149 to 151 | N#Cc1ccc2c(c1)C=CS2(=O)=O
237 to 239 | O=C(O)Cn1nc(-c2ccccc2)ccc1=O
126 to 128 | N#Cc1cccc2cnccc12
44 to 46 | c1cc2c(s1)CCNC2C1CC1 (stereo not given)
105 to 107 | Cc1nn(-c2ccccc2)c(Oc2ccc(F)cc2)c1C=O
181 to 183 | Cc1ccc(Sc2nc(=N)s[nH]2)cc1
299 to 301 | O=C(O)c1c2c(nc3ccccc13)C(=Cc1cccc([N+](=O)[O-])c1)CCC2
119 to 121 | Nc1ccc2c(c1)C(=O)NCC2
69 to 71 | O=C(O)CC1CCSCC1
167 to 169 | O=C(O)c1ccc(Oc2ccc(Cl)cc2)c(Cl)c1
124 to 126 | COc1ccccc1CNC(N)=O
74 to 76 | C#CCN1CCC(NC2CCOCC2)CC1
258 to 260 | NS(=O)(=O)c1ccc2c(c1)C(=O)C(=O)N2
174 to 176 | Oc1ccc(-c2ccccc2)nc1
159 to 161 | CCc1ccc(-c2noc(S)n2)cc1

melting point [°C] | SMILES
130 to 132 | O=C1CCCc2nc(-c3ccccc3Br)sc21
134 to 136 | COc1cc(Br)ccc1C(N)=O
156 to 158 | CN(C)C(=O)c1ccc2c(c1)CCN2
194 to 196 | Cn1ccc(C(=O)N2CCCCC2CC(=O)O)cc1=O (stereo not given)
49 to 51 | CCOC(=O)c1n[nH]c(C(O)c2ccccc2)n1 (stereo not given)
51 to 53 | CCOC(CC(N)=O)OCC
249 to 251 | Cc1cc(C)c2c(=O)[nH][nH]c2n1
35 to 37 | c1ccc(-c2nnco2)cc1
226 to 228 | Cn1c(=O)n(CCC(=O)O)c2ccccc21
163 to 165 | O=C(O)CNC1=NCCCCC1
174 to 176 | CCc1cc(=O)c2ccccc2[nH]1
196 to 198 | CC(=O)NCc1ccc(C(=O)N2CCCC2C(=O)O)cc1 (stereo not given)
86 to 88 | COCC(N)=O
262 to 264 | COC(=O)c1nc2n(n1)-c1ccccc1S(=O)(=O)N2
76 to 78 | Cc1noc(COCC(=O)O)n1
153 to 155 | O=C(O)CCc1nnc(-c2cc(F)ccc2Br)o1
93 to 95 | CCNC(=O)c1ccccc1N
127 to 129 | Cc1ccc(CNC(=O)CC#N)cc1
125 to 127 | Nc1cccc(C(=O)N2CCc3ccccc32)c1
49 to 51 | N#Cc1cccc(OCC(F)F)n1
209 to 211 | N#Cc1c(SCC(=O)O)nc2c(c1-c1ccco1)CCCC2
130 to 132 | Cc1ccc(C(=O)Nc2cccc(C=O)c2)cc1
279 to 281 | O=C(O)c1cccc(NC(=O)c2ccc(F)cc2)c1
242 to 244 | Cn1ccc(C(=O)NC2(C(=O)O)CCCCCC2)cc1=O

melting point [°C] | SMILES
98 to 100 | NNC(=O)CCSc1ccc(F)cc1
170 to 172 | O=C(O)C#Cc1ccc(F)cc1F
48 to 50 | CCC(O)CNc1ccccc1 (stereo not given)
72 to 74 | Cc1nc(-c2cccnc2)nc(Cl)c1C
36 to 38 | NCc1ccc(N2CCOCC2)c(F)c1
222 to 224 | CCCCn1c(=O)[nH]c(=O)c2c1nc(CCl)n2C
86 to 88 | CN1CCC(Nc2ccccc2N)CC1
249 to 251 | Cc1cc(CNCc2cc(C)c(O)c(C)c2)cc(C)c1O
169 to 171 | O=C(O)c1ccc(F)c(I)c1
210 to 212 | CN1C(=O)C(C(N)=NO)=C(N)C12CCCC2
155 to 157 | Fc1ccc(CNc2nc3ccccc3s2)cc1
224 to 226 | O=C(O)COc1ccc2cc(Br)ccc2c1
123 to 125 | Cc1ccnc(-c2cccc(N)c2)n1
80 to 82 | CC(C)(C)c1ccc(N2CCC(N)CC2)cc1
171 to 173 | O=C(O)c1ccc(COc2cccc(Br)c2)o1
56 to 58 | FC(F)(F)c1ccc(-n2nnnc2CCl)cc1
162 to 164 | CC(C)CCNC(=O)C1CSCN1 (stereo not given)
101 to 103 | O=C(O)C1(c2cccc(Cl)c2)CCC1
32 to 34 | CC1(COS(C)(=O)=O)COC1
51 to 53 | COC(=O)c1sc(C)cc1O
309 to 311 | Nc1ccc(-c2c3c(=O)[nH][nH]c(=O)c3c3n2CCC3)cc1
187 to 189 | NC(=O)c1ncc(Br)cc1Br
148 to 150 | CC(C)(C)CNC(N)=O
73 to 75 | O=[N+]([O-])c1cc(F)c(S(=O)(=O)Cl)c(F)c1

melting point [°C] | SMILES
104 to 106 | N#CCc1c[nH]c2ccc(Cl)cc12
182 to 184 | CCOc1ccc(OCCOc2ccc(C=CC(=O)O)cc2OCC)cc1
39 to 41 | CC(C(=O)O)c1ccc(Cl)c(Cl)c1 (stereo not given)
49 to 51 | COc1ccc(C#N)cc1C
126 to 128 | Nc1ccc(-n2cncn2)c(F)c1
170 to 172 | O=C(NC(C(=O)O)c1ccccc1)OCC1c2ccccc2-c2ccccc21 (stereo not given)
233 to 235 | Nn1cnc2c(cnn2-c2ccccc2)c1=O
206 to 208 | Cc1cc(=O)oc2cc(OCC(=O)O)ccc12
168 to 170 | CC1(C)CC(=O)c2ccc(O)cc2O1
96 to 98 | O=C(c1cccc(Cl)c1)N1CCNCC1
147 to 149 | CCOC(=O)/C(C#N)=C\Nc1cc(Cl)ccc1F
179 to 181 | Cc1nn(CC(=O)O)c(C)c1[N+](=O)[O-]
175 to 177 | NS(=O)(=O)c1ccc(NCCC(=O)O)c([N+](=O)[O-])c1
128 to 130 | C(=C\c1ccncc1)/c1ccccc1
66 to 68 | CC(C)CC(Cc1cccc(Br)c1)C(=O)O (stereo not given)
155 to 157 | COC1(OC)C2(Cl)C3C(=O)C4C5C(=O)C3C1(Cl)C5(Cl)C42Cl (stereo not given)
162 to 164 | Cn1cc([N+](=O)[O-])c(C(=O)O)n1
144 to 146 | CCc1c(C(=O)O)cnn1C
123 to 125 | OCc1cnc2ccccn12
189 to 191 | Cc1oc(C)c(C(=O)O)c1Br
127 to 129 | COc1cc(C=O)ccc1OCC(=O)c1ccccc1
169 to 171 | CCOC(=O)C1=C(CCl)NC(=O)NC1c1ccc(OC)cc1 (stereo not given)
89 to 91 | CS(=O)(=O)CC1(CC(=O)O)CC1
184 to 186 | COc1ccc(C(=O)Nc2ccccc2C(=O)O)cc1

melting point [°C] | SMILES
101 to 103 | CC(O)CNc1cc(Cl)ncn1 (stereo not given)
67 to 69 | CCOC(=O)c1c(N=C=S)sc(C)c1C
135 to 137 | Nc1ccc(C2CC2)nn1
49 to 51 | OCc1ccc2c(c1)NCC2
126 to 128 | NC(=O)C1CCCN1C(=O)NC(=O)CCl (stereo not given)
64 to 66 | CCNC(=O)c1cccc(C)c1O
61 to 63 | Nc1ccc(OCc2cccs2)cc1
135 to 137 | Nc1ccc(Oc2ccnc3ccccc23)cc1
171 to 173 | CC(C(=O)c1ccc(Br)cc1)N1C(=O)CCC1=O (stereo not given)
136 to 138 | CC(NS(=O)(=O)c1ccc(Cl)cc1)C(=O)O (stereo not given)
105 to 107 | CC(NC(=O)CC(F)(F)F)C(=O)O (stereo not given)
29 to 31 | COC(=O)C(=O)CC(=O)c1cccc(Cl)c1
135 to 137 | CCOC(=O)C1CC(=O)NN1c1ncccc1Cl (stereo not given)
81 to 83 | O=S(=O)(Nc1ccccc1Br)N1CCOCC1
111 to 113 | Cc1ccnc(N)c1N
191 to 193 | O=C(O)C1CC(=O)N(c2ccccc2)C1 (stereo not given)
229 to 231 | CCCCOc1ccc(-c2nnc(N)o2)cc1
234 to 236 | O=C(O)C=Cc1cncc(F)c1
64 to 69 | O=C(O)Cc1ccco1
113 to 115 | O=C(Cn1ccnc1)c1cccc(F)c1
131 to 134 | COc1cc(C=O)cc(O)c1O
123 to 125 | CN(CCO)C(=O)c1ccc(O)cc1
142 to 144 | Nc1ccccc1CN1CCNC1=O
130 to 132 | O=C(O)CNS(=O)(=O)c1ccc(N2CCCC2=O)cc1

melting point [°C] | SMILES
55 to 57 | O=[N+]([O-])c1cnn(CCCl)c1
140 to 142 | O=C(CCl)c1ccc(NC(=O)c2ccccc2)cc1
217 to 219 | Cc1ccc(C)c(S(=O)(=O)Nc2cccc(C(=O)O)c2)c1
124 to 126 | Cc1cccc(COc2cccc(C(=O)O)c2)c1
180 to 182 | COc1ccc(NC(=O)/C=N/O)cc1
190 to 192 | CS(=O)(=O)c1ccc(F)c(C(=O)O)c1
122 to 124 | COC(=O)C(C#N)=NO
69 to 71 | Cc1ccc(C2(C)CC(=O)NC2=O)cc1 (stereo not given)
104 to 106 | CC(C)(C)OC(=O)NCc1cc[nH]n1
189 to 191 | N#CCc1ccc(C(=O)O)cc1
176 to 178 | CC1(C)NC(=O)N(CCC(=O)NN)C1=O
100 to 102 | COC(=O)c1cc(Cl)c(NC(=O)OCC(F)(F)F)cc1OC
97 to 99 | O=C(CCCl)N1CCN(c2ccccn2)CC1
114 to 116 | CN(CC(=O)O)C(=O)c1ccc(Br)s1
97 to 99 | Nc1cncc(Cl)c1Cl
109 to 111 | N#Cc1cc(CO)ccn1
119 to 121 | CC(C)(C)OC(=O)NC(C(N)=NO)c1ccccc1OC(F)(F)F (stereo not given)
144 to 146 | Nc1cccc(N2CCCCC2=O)c1
83 to 85 | Nc1cc(Cl)cc(Br)c1O
113 to 115 | Nc1nc(-c2cccc(F)c2)cs1
80 to 82 | Cc1nc2c(s1)C(O)CCC2 (stereo not given)
39 to 41 | CCOCCCNC(=S)NCc1ccc(OC)cc1

SMILES | melting point [°C]
N#CCOc1ccc(CBr)cc1 | 74 to 76
CC(Cl)C(=O)NC1CCCCC1 (stereo not given) | 98 to 100
c1ccc(C2COCCN2)cc1 (stereo not given) | 74 to 76
